The source of these data is US9006451B1, “2-anilinonicotinyl based chalcones useful as potential anticancer agents and process for preparation thereof” (Council of Scientific and Industrial Research, priority 2013, dated 2015).

One data set deals with HL-60(TB). Nature of the data set: NCI 60 human tumor cell line screen (SRB): HL-60(TB). Type of data set: cell-based. To be noted: Leukemia, 48 hours, read-out: GI50 values (μM conc.). The procedure: (§1) The in vitro anticancer activity studies for these chalcone analogues were carried out at the National Cancer Institute, USA.
(§2) The chalcone compounds have been tested at NCI, USA, against sixty human tumor cell lines derived from nine cancer types (leukemia, non-small cell lung cancer, colon cancer, CNS cancer, melanoma cancer, ovarian cancer, renal cancer, prostate cancer and breast cancer). For these compounds results are expressed as growth inhibition (GI50) values as per NCI protocol.
(§3) We describe here the development and implementation of a pilot-scale, in vitro, anticancer drug screen utilizing a panel of 60 human tumor cell lines organized into subpanels representing leukemia, melanoma, and cancers of the lung, colon, kidney, ovary, and central nervous system. The ultimate goal of this disease-oriented screen is to facilitate the discovery of new compounds with potential cell line-specific and/or subpanel-specific antitumor activity. In the current screening protocol, each cell line is inoculated onto microtiter plates, then preincubated for 28 hours. Subsequently, test agents are added in five 10-fold dilutions and the culture is incubated for an additional 48 hours. For each test agent, a dose-response profile is generated. End-point determinations of the cell viability or cell growth are performed by in situ fixation of cells, followed by staining with a protein-binding dye, sulforhodamine B (SRB). The SRB binds to the basic amino acids of cellular macromolecules; the solubilized stain is measured spectrophotometrically to determine relative cell growth or viability in treated and untreated cells.

Another data set concerns K-562. Nature of the data set: NCI 60 human tumor cell line screen (SRB): K-562. Particulars: K562, K-562, Leukemia, 48 hours, read-out: GI50 values (μM conc.). Type of data set: cell-based. The method, then: as §1, §2
as §3, with “For each test agent, a dose-response profile is generated. End-point determinations of the cell viability or cell growth are performed by in situ fixation of cells, followed by staining with a protein-binding dye, sulforhodamine B (SRB).” left out

For `COc1cc(C(=O)/C=C/c2cccnc2Nc2ccccc2)cc(OC)c1OC` [6a, (E)-3-(2-(Phenylamino)pyridin-3-yl)-1-(3,4,5-trimethoxyphenyl)prop-2-en-1-one], the melting point is 125 to 128 °C. For the same compound, in the data set with HL-60(TB), the GI50 is 1.52 µM.
Regarding `COc1cc(Nc2ncccc2/C=C/C(=O)c2cc(OC)c(OC)c(OC)c2)cc(OC)c1OC` [6v, (E)-1-(3,4,5-Trimethoxyphenyl)-3-(2-(3,4,5-trimethoxyphenylamino)pyridin-3-yl)prop-2-en-1-one], the GI50 in the data set on HL-60(TB) was found to be 8 µM.
On to `COc1ccc(Nc2ncccc2/C=C/C(=O)c2cc(OC)c(OC)c(OC)c2)cc1` [6h, (E)-3-(2-(4-Methoxyphenylamino)pyridin-3-yl)-1-(3,4,5-trimethoxyphenyl)prop-2-en-1-one], for which the GI50 in the data set on K-562 came to 0.78 µM.
Turning to `COc1ccc(C(=O)/C=C/c2cccnc2Nc2cc(OC)c(OC)c(OC)c2)cc1` [6z, (E)-1-(4-Methoxyphenyl)-3-(2-(3,4,5-trimethoxyphenylamino)pyridin-3-yl)prop-2-en-1-one], the GI50 in the data set with HL-60(TB) came to 1.27 µM.
In the case of `COc1cc(/C=C/C(=O)c2cccnc2Nc2ccc(F)cc2)cc(OC)c1OC` [7f, (E)-1-(2-(4-Fluorophenylamino)pyridin-3-yl)-3-(3,4,5-trimethoxyphenyl)prop-2-en-1-one], in the data set with HL-60(TB), the GI50 is 2.4 µM.
Still for that read-out and setting: for `COc1cc(C(=O)/C=C/c2cccnc2Nc2ccc(Cl)cc2)cc(OC)c1OC` [6ax, (E)-3-(2-(4-Chlorophenylamino)pyridin-3-yl)-1-(3,4,5-trimethoxyphenyl)prop-2-en-1-one] the value was 1.59 µM.

As a reminder, the melting point is the temperature, or range, at which the solid turns liquid. As a reminder, the GI50 is the concentration at which growth is held to half of that of the control.
